Assay results: patent publication US10994015B2, “EGFR proteolysis targeting chimeric molecules and associated methods of use” (Arvinas Operations, Inc., priority 2016, dated 2021)

How the values were obtained:
[1] = molecular target: EGFR L858R/T790M/C797S (Homo sapiens (Human), UniProt P00533, C797S/L858R/T790M); assay: TR-FRET assay for ERBB kinases; assay type: biochemical; settings: geometric mean if measured more than once
Description: (§1) TR-FRET Assay for ERBB Kinases
(§2) All compounds and PROTACs were serially diluted in three-fold increments using 100% DMSO, followed by an intermediate 10-fold dilution using Buffer A (50 mM HEPES, pH 7.5, 50 mM NaCl, 10 mM MgCl2, 1 mM DTT, and 0.1% Pluronic F-68). […] Next, 10 uL of protein kinase in Buffer A was added to each well of the assay plate and pre-incubated with compound for 10 minutes. Kinase reactions were then initiated by addition of 5 uL substrate mix containing 3 mM ATP and 30 uM fluorescein-labeled Poly-GluTyr (Thermo Fisher, #PV3610) in Buffer A and allowed to proceed for 10 minutes at room temperature. Reactions were quenched by addition of a 5 uL mixture containing 5 nM LanthaScreen® Tb-pY20 Antibody (Thermo Fisher, #PV3552) and 40 mM EDTA in Buffer A. Assay plates were then read using a Synergy2 (Biotek Instruments, Winooski, Vt.) via excitation thru a 340/20 nm bandpass filter and emission collected thru 490/10 nm (donor) and 520/25 nm (acceptor) bandpass filters.

[2] = molecular target: EGFR WT (Homo sapiens (Human), UniProt P00533); assay: TR-FRET assay for ERBB kinases; assay type: biochemical; settings: geometric mean if measured more than once
EGFR WT, sequence (P00533 25-1210): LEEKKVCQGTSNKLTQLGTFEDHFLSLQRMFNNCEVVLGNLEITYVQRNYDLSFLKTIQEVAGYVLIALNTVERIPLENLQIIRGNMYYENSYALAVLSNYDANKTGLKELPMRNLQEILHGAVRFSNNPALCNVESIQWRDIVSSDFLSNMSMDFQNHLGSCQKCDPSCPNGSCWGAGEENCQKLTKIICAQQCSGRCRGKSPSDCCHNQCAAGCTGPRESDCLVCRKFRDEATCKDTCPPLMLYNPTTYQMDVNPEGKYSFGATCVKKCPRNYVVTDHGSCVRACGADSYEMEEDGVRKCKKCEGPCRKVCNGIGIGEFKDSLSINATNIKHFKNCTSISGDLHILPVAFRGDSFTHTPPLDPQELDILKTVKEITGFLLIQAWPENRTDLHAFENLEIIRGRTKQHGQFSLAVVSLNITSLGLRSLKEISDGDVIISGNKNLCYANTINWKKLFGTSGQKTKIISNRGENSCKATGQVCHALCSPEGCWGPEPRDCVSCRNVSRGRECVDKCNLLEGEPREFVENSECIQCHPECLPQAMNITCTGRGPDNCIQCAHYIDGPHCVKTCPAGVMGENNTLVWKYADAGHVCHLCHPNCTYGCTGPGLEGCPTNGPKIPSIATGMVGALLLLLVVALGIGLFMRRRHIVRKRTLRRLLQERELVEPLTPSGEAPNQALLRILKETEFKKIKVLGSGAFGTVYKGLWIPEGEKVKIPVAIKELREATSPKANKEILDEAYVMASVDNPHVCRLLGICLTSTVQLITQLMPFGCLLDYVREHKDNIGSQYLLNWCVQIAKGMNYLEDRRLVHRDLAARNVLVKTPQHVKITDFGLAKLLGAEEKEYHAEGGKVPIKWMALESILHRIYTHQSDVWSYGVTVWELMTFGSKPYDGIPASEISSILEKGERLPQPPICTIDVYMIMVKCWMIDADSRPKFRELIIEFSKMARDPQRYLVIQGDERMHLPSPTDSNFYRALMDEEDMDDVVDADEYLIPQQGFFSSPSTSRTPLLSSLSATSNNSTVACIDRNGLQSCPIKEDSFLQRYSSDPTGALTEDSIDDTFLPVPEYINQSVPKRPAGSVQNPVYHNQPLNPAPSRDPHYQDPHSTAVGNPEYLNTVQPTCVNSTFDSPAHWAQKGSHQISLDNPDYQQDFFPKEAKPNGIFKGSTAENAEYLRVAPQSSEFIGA
Description: as §1, §2

[3] = molecular target: EGFR L858R/T790M (Homo sapiens (Human), UniProt P00533, L858R/T790M); assay: TR-FRET assay for ERBB kinases; assay type: biochemical; settings: geometric mean if measured more than once
EGFR L858R/T790M, sequence (P00533 25-1210 T790M/L858R): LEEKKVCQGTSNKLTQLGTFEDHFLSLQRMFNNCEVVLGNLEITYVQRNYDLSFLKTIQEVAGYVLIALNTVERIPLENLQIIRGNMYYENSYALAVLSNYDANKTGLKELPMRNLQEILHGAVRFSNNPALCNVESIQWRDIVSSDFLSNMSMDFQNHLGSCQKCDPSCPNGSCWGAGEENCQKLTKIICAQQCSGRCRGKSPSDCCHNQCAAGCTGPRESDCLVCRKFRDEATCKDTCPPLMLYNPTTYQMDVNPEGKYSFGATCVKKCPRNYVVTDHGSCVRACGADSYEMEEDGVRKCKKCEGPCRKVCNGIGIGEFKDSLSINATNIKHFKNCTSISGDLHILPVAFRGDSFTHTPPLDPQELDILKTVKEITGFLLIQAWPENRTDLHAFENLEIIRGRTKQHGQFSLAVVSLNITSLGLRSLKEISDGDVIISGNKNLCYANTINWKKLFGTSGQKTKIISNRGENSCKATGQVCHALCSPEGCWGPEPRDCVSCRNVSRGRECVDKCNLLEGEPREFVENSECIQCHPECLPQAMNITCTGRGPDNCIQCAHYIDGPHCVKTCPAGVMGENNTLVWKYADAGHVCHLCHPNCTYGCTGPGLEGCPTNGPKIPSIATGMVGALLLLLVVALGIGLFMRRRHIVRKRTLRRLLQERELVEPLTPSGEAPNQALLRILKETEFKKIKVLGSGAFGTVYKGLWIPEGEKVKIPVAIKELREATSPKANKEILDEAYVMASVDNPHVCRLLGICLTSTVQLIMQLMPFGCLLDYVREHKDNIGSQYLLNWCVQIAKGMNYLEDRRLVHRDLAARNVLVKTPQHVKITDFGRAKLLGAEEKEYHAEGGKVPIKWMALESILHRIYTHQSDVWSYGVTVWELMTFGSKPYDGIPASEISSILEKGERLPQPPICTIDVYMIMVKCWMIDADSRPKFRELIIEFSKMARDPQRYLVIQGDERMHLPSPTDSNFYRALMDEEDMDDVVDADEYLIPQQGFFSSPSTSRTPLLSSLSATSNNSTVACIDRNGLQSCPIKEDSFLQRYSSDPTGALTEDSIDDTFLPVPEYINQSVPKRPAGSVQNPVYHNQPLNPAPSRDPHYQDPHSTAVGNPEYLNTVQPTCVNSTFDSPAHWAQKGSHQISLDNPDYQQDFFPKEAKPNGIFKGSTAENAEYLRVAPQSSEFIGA
Description: as §1, §2

[4] = molecular target: EGFR L858R/T790M/C797S triple mutant (H520*) (Homo sapiens (Human), UniProt P00533, C797S/L858R/T790M); assay: EGFR protein degradation assay (Western blot); assay type: cell-based; settings: 72 hours, 300 nM to 10 nM
Description: (§3) EGFR Protein Degradation assay
Cells were incubated overnight at 37° C., 5% CO2 prior to compound addition. A 10 mM compound stock in DMSO was serially diluted in DMSO to provide the following stock concentrations: 1, 0.3, 0.1, 0.03 and 0.01 mM. An appropriate volume of each compound dilution, together with a DMSO vehicle control, was added to media to provide a 2× compound solution. […] At the end of the compound treatment, cells were washed once with ice-cold phosphate-buffered saline (PBS) and treated with lysis solution (1× lysis buffer, Cell Signaling Technologies (CST #9803) supplemented with Piarce™ protease inhibitors, #A32953, Thermo Fisher Scientific, TFS). Lysates were collected and clarified of cell debris by spinning at 10K rpm for 10 minutes. A specific volume of supernatant was retrieved for protein quantification (Pierce™ BCA kit, TFS #23225) and for Western analysis. Loading buffer supplemented with EDTA and reducing agent was added to each supernatant. A specific volume of supernatant (determined by protein assay: […] loaded per sample) was loaded into a NuPAGE™ 4-12% Bis-Tris gel (TFS). Samples were run at 165V in MOPS running buffer for 2 hours and then transferred to PVDF blotting membrane using a dry blotting system (iBlot2, TFS). Membranes were blocked in Tris-buffered saline supplemented with Tween, 0.1% (TBST) containing 5% non-fat dry milk, (AmericanBio). Following block, membranes were washed once with TBST. […] Membranes were washed 3× with TBST prior to addition of secondary antibody (1:10 000, anti-rabbit HRP-linked, CST #7074) in TBST with 3% BSA and then incubated at room temperature for one hour. Membranes were then washed 3× with TBS and signal developed by exposure to developer (SuperSignal West Femto, TFS) for 5 minutes. Membranes were then immediately imaged using a BioRad Chemidoc.

[5] = molecular target: EGFR Exon20NPG (Homo sapiens (Human), UniProt P00533, INS770NPG); assay: TR-FRET assay for ERBB kinases; assay type: biochemical; settings: geometric mean if measured more than once
EGFR Exon20NPG, sequence (P00533 other isoform, or with tags, fused parts or gaps del 1-694/ins NPG behind 770 limits assumed): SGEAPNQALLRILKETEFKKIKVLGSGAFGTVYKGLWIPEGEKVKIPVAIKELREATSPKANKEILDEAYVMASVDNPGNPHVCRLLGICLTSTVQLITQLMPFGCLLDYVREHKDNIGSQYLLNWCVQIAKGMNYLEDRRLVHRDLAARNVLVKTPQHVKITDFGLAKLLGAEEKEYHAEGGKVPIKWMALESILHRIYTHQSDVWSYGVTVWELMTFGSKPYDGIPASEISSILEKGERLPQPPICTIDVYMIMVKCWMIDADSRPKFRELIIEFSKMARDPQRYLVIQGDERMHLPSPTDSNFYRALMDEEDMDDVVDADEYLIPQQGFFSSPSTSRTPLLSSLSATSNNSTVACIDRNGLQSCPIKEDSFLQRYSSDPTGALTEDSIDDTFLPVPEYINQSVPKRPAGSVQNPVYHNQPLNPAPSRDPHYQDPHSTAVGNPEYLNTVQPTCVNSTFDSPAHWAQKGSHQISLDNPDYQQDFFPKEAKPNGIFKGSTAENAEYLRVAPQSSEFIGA
Description: as §1
All compounds and PROTACs were serially diluted in three-fold increments using 100% DMSO, followed by an intermediate 10-fold dilution using Buffer A (50 mM HEPES, pH 7.5, 50 mM NaCl, 10 mM MgCl2, 1 mM DTT, and 0.1% Pluronic F-68). Two microliters of serially diluted compound or PROTAC were then transferred to black 384-well Proxiplates (PerkinElmer, #6008260) using an Integra Viaflo96. Next, 10 uL of protein kinase in Buffer A was added to each well of the assay plate and pre-incubated with compound for 10 minutes. Kinase reactions were then initiated by addition of 5 uL substrate mix containing 3 mM ATP and 30 uM fluorescein-labeled Poly-GluTyr (Thermo Fisher, #PV3610) in Buffer A and allowed to proceed for 10 minutes at room temperature. Reactions were quenched by addition of a 5 uL mixture containing 5 nM LanthaScreen® Tb-pY20 Antibody (Thermo Fisher, #PV3552) and 40 mM EDTA in Buffer A. Assay plates were then read using a Synergy2 (Biotek Instruments, Winooski, Vt.) via excitation thru a 340/20 nm bandpass filter and emission collected thru 490/10 nm (donor) and 520/25 nm (acceptor) bandpass filters.

[6] = molecular target: EGFR L858R/T790M double mutant (H1975) (Homo sapiens (Human), UniProt P00533, L858R/T790M); assay: EGFR protein degradation assay (Western blot); assay type: cell-based; settings: 72 hours, 300 nM to 10 nM
EGFR L858R/T790M double mutant (H1975), sequence (P00533 25-1210 T790M/L858R): as the sequence (P00533 25-1210 T790M/L858R) above
Description: as §3
Cells expressing the appropriate form of EGFR were seeded in 6-well plates (300,000 cells per well) and allowed to adhere to the plate overnight. […] To harvest cells, media was removed and cells were washed once with ice-cold phosphate-buffered saline (PBS) prior to the addition of 400 μl lysis buffer (Cell Signaling Technology) supplemented with a protease inhibitor cocktail (Thermo Scientific). Cells were scraped from the plate and the cell lysate transferred to an Eppendorf tube and then clarified by a single spin at 10 000 rpm for 10 minutes. The protein concentration of each lysate was determined (BCA kit, Thermo Scientific) prior to the addition of loading buffer (Invitrogen) and reducing agent (Invitrogen). 10 μg protein of each lysate was loaded on an SDS/PAGE gel and run at 165V for 2 hours. Following transfer to a PVDF membrane (iBlot2, Thermo Fisher Scientific), the membrane was blocked in Tris-buffered saline containing 0.1% Tween-20 (TBS-T) and supplemented with 5% powdered milk for 1 hour. Membranes were then probed with EGFR and tubulin (loaded control) primary antibodies in TBS-T containing 3% bovine serum albumin (BSA) overnight at 4° C. Membranes were washed thrice with TBS-T before incubation with secondary antibody in TBS-T containing 3% bovine serum albumin (BSA) and incubated for 1 hour at room temperature. Following 3 further washes with TBS, membrane proteins of interest were detected by enzyme-linked chemiluminescence (ECL) using a Chemidoc (Bio-Rad).

| Structure (SMILES) | IC50 [1] [µM] | IC50 [2] [µM] | IC50 [3] [µM] | EGFR protein remaining, EGFR L858R/T790M/C797S triple mutant [4] | IC50 [5] [µM] | EGFR protein remaining, EGFR L858R/T790M double mutant [6] |
| --- | --- | --- | --- | --- | --- | --- |
| CC(C)n1c(COCCN2CCN(c3ccc(OCCCN4CCN(c5ccc6c(c5)C(=O)N(C5CCC(=O)NC5=O)C6=O)CC4)cc3)CC2)nc2cnc(Nc3ccnc(-c4cnn(S(=O)(=O)C5CC5)c4)n3)cc21 (stereo not shown) [compound 305] | 0.0013 | 2.1 | 0.0098 | C (>80% EGFR protein remaining after 72 hours of incubation with the test compound at a concentration of 300 nM) | – | – |
| O=C1CCC(N2C(=O)c3ccc(N4CCC(CN5CCC(OCCCc6cccc7c6C(=O)N(C(C(=O)Nc6nccs6)c6cc(F)ccc6O)C7)CC5)CC4)cc3C2=O)C(=O)N1 (stereo not shown) [compound 297] | 0.31 | 1.8 | 1.8 | B (≤80% and >50% EGFR protein remaining after 72 hours of incubation with the test compound at a concentration between 300 nM and 10 nM) | – | – |
| O=C1CCC(N2C(=O)c3ccc(N4CCC(CN5CCC(OC/C=C/c6cccc7c6C(=O)N(C(C(=O)Nc6nccs6)c6cc(F)ccc6O)C7)CC5)CC4)cc3C2=O)C(=O)N1 (stereo not shown) [compound 298] | 0.54 | 1.6 | 1.4 | C (>80% EGFR protein remaining after 72 hours of incubation with the test compound at a concentration of 300 nM) | – | – |
| O=C1CCC(N2C(=O)c3ccc(N4CCN(CC5CCN(CCCc6cccc7c6C(=O)N(C(C(=O)Nc6nccs6)c6cc(F)ccc6O)C7)CC5)CC4)cc3C2=O)C(=O)N1 (stereo not shown) [compound 294] | 0.17 | 3.5 | 0.81 | C (>80% EGFR protein remaining after 72 hours of incubation with the test compound at a concentration of 300 nM) | – | – |
| O=C1CCC(N2C(=O)c3ccc(N4CCN(CCCOCCCCNc5cccc6c5C(=O)N(C(C(=O)Nc5nccs5)c5cc(F)ccc5O)C6)CC4)cc3C2=O)C(=O)N1 (stereo not shown) [compound 289] | 0.19 | 1.2 | 1.7 | C (>80% EGFR protein remaining after 72 hours of incubation with the test compound at a concentration of 300 nM) | – | – |
| Cc1ncsc1-c1ccc([C@H](C)NC(=O)[C@H]2C[C@H](O)CN2C(=O)[C@@H](NC(=O)COCCOCCOc2ccc(-c3nccc(Nc4cc5c(cn4)nc(C)n5C(C)C)n3)cc2)C(C)(C)C)cc1 [Example 276, (2R,4S)-4-hydroxy-1-((S)-2-(2-(2-(2-(4-(4-((1-isopropyl-2-methyl-1H-imidazo[4,5-c]pyridin-6-yl)amino)pyrimidin-2-yl)phenoxy)ethoxy)ethoxy)acetamido)-3,3-dimethylbutanoyl)-N—((S)-1-(4-(4-methylthiazol-5-yl)phenyl)ethyl)pyrrolidine-2-carboxamide] | 29 | 20 | 23 | – | > 30 | C (>80% EGFR protein remaining after 72 hours of incubation with the test compound at a concentration of 300 nM) |
| O=C1CCC(N2C(=O)c3ccc(N4CCC(CN5CCC(OCC#Cc6cccc7c6C(=O)N(C(C(=O)Nc6nccs6)c6cc(F)ccc6O)C7)CC5)CC4)cc3C2=O)C(=O)N1 (stereo not shown) [compound 290] | 0.14 | 1.1 | 2.7 | B (≤80% and >50% EGFR protein remaining after 72 hours of incubation with the test compound at a concentration between 300 nM and 10 nM) | – | – |
| COC1CCN(c2nccc(Nc3cc4c(cn3)nc(COCCCN3CCN(CCCOCC(=O)N[C@H](C(=O)N5C[C@H](O)C[C@H]5C(=O)N[C@@H](C)c5ccc(-c6scnc6C)cc5)C(C)(C)C)CC3)n4C(C)C)n2)CC1 [Example 85, (2S,4R)-4-hydroxy-1-((S)-2-(2-(3-(4-(3-((1-isopropyl-6-((2-(4-methoxypiperidin-1-yl)pyrimidin-4-yl)amino)-1H-imidazo[4,5-c]pyridin-2-yl)methoxy)propyl)piperazin-1-yl)propoxy)acetamido)-3,3-dimethylbutanoyl)-N—((S)-1-(4-(4-methylthiazol-5-yl)phenyl)ethyl)pyrrolidine-2-carboxamide] | 3.9 | > 30 | 16 | – | > 30 | C (>80% EGFR protein remaining after 72 hours of incubation with the test compound at a concentration of 300 nM) |
| Cc1ncsc1-c1ccc([C@H](C)NC(=O)[C@@H]2C[C@@H](O)CN2C(=O)[C@@H](NC(=O)COCCOCCOCCOCCOCCOCCOCC#Cc2cccc3c2C(=O)N(C(C(=O)Nc2nccs2)c2cc(F)ccc2O)C3)C(C)(C)C)cc1 (stereo partly shown) [compound 299] | 0.2 | 0.24 | 4.6 | C (>80% EGFR protein remaining after 72 hours of incubation with the test compound at a concentration of 300 nM) | – | – |
| Cc1ncsc1-c1ccc(CNC(=O)[C@@H]2C[C@@H](O)CN2C(=O)C(C(C)C)N2Cc3ccccc3C2=O)c(OCCCCOc2ccc(-c3nccc(Nc4cc5c(cn4)nc(C)n5C(C)C)n3)cc2)c1 (stereo partly shown) [compound 277] | > 30 | > 30 | > 30 | – | > 30 | C (>80% EGFR protein remaining after 72 hours of incubation with the test compound at a concentration of 300 nM) |
